According to the NIST ThermoML archive (doi:10.1016/j.jct.2012.03.003):

Experiment: xn = mol fraction of the nth substance listed
Conditions: Liquid, Vibrating tube method

COc1cc2c(cc1O)CC1c3c(cc(O)c(OC)c3-2)CCN1C (stereo not given) [boldine] + CCO
Conditions | mass density [kg/m3]
352.81 K, 16000 kPa, x1 = 0.0012 | 755.72
352.81 K, 16000 kPa, x1 = 0.0136 | 781.95
352.81 K, 17000 kPa, x1 = 0.0012 | 756.73
352.81 K, 17000 kPa, x1 = 0.0136 | 782.94
352.81 K, 18000 kPa, x1 = 0.0012 | 757.73
352.81 K, 18000 kPa, x1 = 0.0136 | 783.9
352.81 K, 19000 kPa, x1 = 0.0012 | 758.72
352.81 K, 19000 kPa, x1 = 0.0136 | 784.85
352.81 K, 20000 kPa, x1 = 0.0012 | 759.69
352.81 K, 20000 kPa, x1 = 0.0136 | 785.8
352.82 K, 1000 kPa, x1 = 0.0267 | 792.92
352.82 K, 2000 kPa, x1 = 0.0267 | 794.02
352.82 K, 3000 kPa, x1 = 0.0267 | 795.11
352.82 K, 4000 kPa, x1 = 0.0267 | 796.19
352.82 K, 5000 kPa, x1 = 0.0267 | 797.27
352.82 K, 6000 kPa, x1 = 0.0267 | 798.34
352.82 K, 7000 kPa, x1 = 0.0267 | 799.39
352.82 K, 8000 kPa, x1 = 0.0267 | 800.44
352.82 K, 9000 kPa, x1 = 0.0267 | 801.49
352.82 K, 10000 kPa, x1 = 0.0267 | 802.51
352.82 K, 11000 kPa, x1 = 0.0267 | 803.53
352.82 K, 12000 kPa, x1 = 0.0267 | 804.54
352.82 K, 13000 kPa, x1 = 0.0267 | 805.54
352.82 K, 14000 kPa, x1 = 0.0267 | 806.51
352.82 K, 15000 kPa, x1 = 0.0267 | 807.49
352.82 K, 16000 kPa, x1 = 0.0267 | 808.44
352.82 K, 17000 kPa, x1 = 0.0267 | 809.38
352.82 K, 18000 kPa, x1 = 0.0267 | 810.32
352.82 K, 19000 kPa, x1 = 0.0267 | 811.24
352.82 K, 20000 kPa, x1 = 0.0267 | 812.14
352.88 K, 1000 kPa, x1 = 0.0074 | 751.94
352.88 K, 2000 kPa, x1 = 0.0074 | 753.18
352.88 K, 3000 kPa, x1 = 0.0074 | 754.29
352.88 K, 4000 kPa, x1 = 0.0074 | 755.45
352.88 K, 5000 kPa, x1 = 0.0074 | 756.6
352.88 K, 6000 kPa, x1 = 0.0074 | 757.75
352.88 K, 7000 kPa, x1 = 0.0074 | 758.88
352.88 K, 8000 kPa, x1 = 0.0074 | 760.01
352.88 K, 9000 kPa, x1 = 0.0074 | 761.12
352.88 K, 10000 kPa, x1 = 0.0074 | 762.21
352.88 K, 11000 kPa, x1 = 0.0074 | 763.3
352.88 K, 12000 kPa, x1 = 0.0074 | 764.38
352.88 K, 13000 kPa, x1 = 0.0074 | 765.43
352.88 K, 14000 kPa, x1 = 0.0074 | 766.48
352.88 K, 15000 kPa, x1 = 0.0074 | 767.51
352.88 K, 16000 kPa, x1 = 0.0074 | 768.53
352.88 K, 17000 kPa, x1 = 0.0074 | 769.53
352.88 K, 18000 kPa, x1 = 0.0074 | 770.52
352.88 K, 19000 kPa, x1 = 0.0074 | 771.48
352.88 K, 20000 kPa, x1 = 0.0074 | 772.43
362.76 K, 1000 kPa, x1 = 0.0196 | 770.85
362.76 K, 2000 kPa, x1 = 0.0196 | 772.05
362.76 K, 3000 kPa, x1 = 0.0196 | 773.24
362.76 K, 4000 kPa, x1 = 0.0196 | 774.43
362.76 K, 5000 kPa, x1 = 0.0196 | 775.6
362.76 K, 6000 kPa, x1 = 0.0196 | 776.76
362.76 K, 7000 kPa, x1 = 0.0196 | 777.92
362.76 K, 8000 kPa, x1 = 0.0196 | 779.06
362.76 K, 9000 kPa, x1 = 0.0196 | 780.2
362.76 K, 10000 kPa, x1 = 0.0196 | 781.28
362.76 K, 11000 kPa, x1 = 0.0196 | 782.39
362.76 K, 12000 kPa, x1 = 0.0196 | 783.48
362.76 K, 13000 kPa, x1 = 0.0196 | 784.55
362.76 K, 14000 kPa, x1 = 0.0196 | 785.61
362.76 K, 15000 kPa, x1 = 0.0196 | 786.65
362.76 K, 16000 kPa, x1 = 0.0196 | 787.68
362.76 K, 17000 kPa, x1 = 0.0196 | 788.71
362.76 K, 18000 kPa, x1 = 0.0196 | 789.69
362.76 K, 19000 kPa, x1 = 0.0196 | 790.66
362.76 K, 20000 kPa, x1 = 0.0196 | 791.63
362.77 K, 1000 kPa, x1 = 0.0136 | 755.74
362.77 K, 1000 kPa, x1 = 0.0267 | 783.02
362.77 K, 2000 kPa, x1 = 0.0136 | 756.99
362.77 K, 2000 kPa, x1 = 0.0267 | 784.19
362.77 K, 3000 kPa, x1 = 0.0136 | 758.22
362.77 K, 3000 kPa, x1 = 0.0267 | 785.37
362.77 K, 4000 kPa, x1 = 0.0136 | 759.44
362.77 K, 4000 kPa, x1 = 0.0267 | 786.53
362.77 K, 5000 kPa, x1 = 0.0136 | 760.66
362.77 K, 5000 kPa, x1 = 0.0267 | 787.67
362.77 K, 6000 kPa, x1 = 0.0136 | 761.86
362.77 K, 6000 kPa, x1 = 0.0267 | 788.81
362.77 K, 7000 kPa, x1 = 0.0136 | 763.05
362.77 K, 7000 kPa, x1 = 0.0267 | 789.94
362.77 K, 8000 kPa, x1 = 0.0136 | 764.22
362.77 K, 8000 kPa, x1 = 0.0267 | 791.05
362.77 K, 9000 kPa, x1 = 0.0136 | 765.39
362.77 K, 9000 kPa, x1 = 0.0267 | 792.16
362.77 K, 10000 kPa, x1 = 0.0136 | 766.54
362.77 K, 10000 kPa, x1 = 0.0267 | 793.25
362.77 K, 11000 kPa, x1 = 0.0136 | 767.67
362.77 K, 11000 kPa, x1 = 0.0267 | 794.34
362.77 K, 12000 kPa, x1 = 0.0136 | 768.79
362.77 K, 12000 kPa, x1 = 0.0267 | 795.38
362.77 K, 13000 kPa, x1 = 0.0136 | 769.9
362.77 K, 13000 kPa, x1 = 0.0267 | 796.43
362.77 K, 14000 kPa, x1 = 0.0136 | 770.98
362.77 K, 14000 kPa, x1 = 0.0267 | 797.48
362.77 K, 15000 kPa, x1 = 0.0136 | 772.08
362.77 K, 15000 kPa, x1 = 0.0267 | 798.5
362.77 K, 16000 kPa, x1 = 0.0136 | 773.14
362.77 K, 16000 kPa, x1 = 0.0267 | 799.5
362.77 K, 17000 kPa, x1 = 0.0136 | 774.19
362.77 K, 17000 kPa, x1 = 0.0267 | 800.5
362.77 K, 18000 kPa, x1 = 0.0136 | 775.2
362.77 K, 18000 kPa, x1 = 0.0267 | 801.48
362.77 K, 19000 kPa, x1 = 0.0136 | 776.22
362.77 K, 19000 kPa, x1 = 0.0267 | 802.44
362.77 K, 20000 kPa, x1 = 0.0136 | 777.21
362.77 K, 20000 kPa, x1 = 0.0267 | 803.41
362.78 K, 1000 kPa, x1 = 0.0012 | 728.71
362.78 K, 2000 kPa, x1 = 0.0012 | 730.01
362.78 K, 3000 kPa, x1 = 0.0012 | 731.31
362.78 K, 4000 kPa, x1 = 0.0012 | 732.6
362.78 K, 5000 kPa, x1 = 0.0012 | 733.87
362.78 K, 6000 kPa, x1 = 0.0012 | 735.12
362.78 K, 7000 kPa, x1 = 0.0012 | 736.36
362.78 K, 8000 kPa, x1 = 0.0012 | 737.59
362.78 K, 9000 kPa, x1 = 0.0012 | 738.8
362.78 K, 10000 kPa, x1 = 0.0012 | 739.99
362.78 K, 11000 kPa, x1 = 0.0012 | 741.18
362.78 K, 12000 kPa, x1 = 0.0012 | 742.33
362.78 K, 13000 kPa, x1 = 0.0012 | 743.48
362.78 K, 14000 kPa, x1 = 0.0012 | 744.62
362.78 K, 15000 kPa, x1 = 0.0012 | 745.73
362.78 K, 16000 kPa, x1 = 0.0012 | 746.83
362.78 K, 17000 kPa, x1 = 0.0012 | 747.9
362.78 K, 18000 kPa, x1 = 0.0012 | 748.97
362.78 K, 19000 kPa, x1 = 0.0012 | 750.01
362.78 K, 20000 kPa, x1 = 0.0012 | 751.05
362.87 K, 1000 kPa, x1 = 0.0074 | 741.96
362.87 K, 2000 kPa, x1 = 0.0074 | 743.24
362.87 K, 3000 kPa, x1 = 0.0074 | 744.5
362.87 K, 4000 kPa, x1 = 0.0074 | 745.75
362.87 K, 5000 kPa, x1 = 0.0074 | 746.98
362.87 K, 6000 kPa, x1 = 0.0074 | 748.21
362.87 K, 7000 kPa, x1 = 0.0074 | 749.43
362.87 K, 8000 kPa, x1 = 0.0074 | 750.63
362.87 K, 9000 kPa, x1 = 0.0074 | 751.81
362.87 K, 10000 kPa, x1 = 0.0074 | 752.98
362.87 K, 11000 kPa, x1 = 0.0074 | 754.12
362.87 K, 12000 kPa, x1 = 0.0074 | 755.27
362.87 K, 13000 kPa, x1 = 0.0074 | 756.39
362.87 K, 14000 kPa, x1 = 0.0074 | 757.5
362.87 K, 15000 kPa, x1 = 0.0074 | 758.59
362.87 K, 16000 kPa, x1 = 0.0074 | 759.65
362.87 K, 17000 kPa, x1 = 0.0074 | 760.72
362.87 K, 18000 kPa, x1 = 0.0074 | 761.76
362.87 K, 19000 kPa, x1 = 0.0074 | 762.79
362.87 K, 20000 kPa, x1 = 0.0074 | 763.81
